Reference: patent US9636317B2, “Compositions and methods of use of phorbol esters” (priority 2007, dated 2017)
Where “and” joins values, the source holds several entries; their conditions need not be identical. Identical values can stand only once. Entries after “also recorded” stand apart in the source; their conditions may differ. Like-named read-outs stand apart in the source and are kept apart here.

How the values were obtained:
S180 cell-injected mice = assay: Effect of TPA on peripheral WBC and Hb counts in S180 cell-injected mice; settings: for WBC counts: second day after treatment
Protocol: Sarcoma 180 (S180) cells were injected into Kwen-Ming mice. On the third day, the mice were given TPA interperitoneally (i.p.). at 50, 100 or 200 μg/kg/day for 7 days. On the second day after the treatment was completed, blood samples were taken from the tails of the treated mice for WBC and Hb analyses.

[1] = Dose ranging study: toxicity and side effects of TPA doses given clinically by i.v. infusion; assay type: in vivo, human
Protocol: Due to the strong local irritation caused by TPA application, TPA was given to patients by intravenous (i.v.) infusion. TPA solution in a sterile syringe was injected into 200 ml of sterile saline and mixed well for i.v. infusion.
One mg TPA in solution was mixed well with 200 ml of sterile saline for intravenous infusion which was completed in 1 h at the rate of 16 μg/min. […] The above symptoms could be alleviated by giving the patients glucocorticoids. […] However, these side effects were short lived and reversible. The cardiac, hepatic, renal and pulmonary functions were all found to be normal.
0.5 mg of TPA in solution was mixed well with 200 ml of saline for intravenous infusion which was completed in 1 h at the rate of 8 μg/min. […] The patients tolerated the lower dose more easily. […] Difficulty in breathing was not observed. The cardiac, hepatic, renal and pulmonary functions were all normal.
0.25 mg of TPA in solution was mixed well with 200 ml of saline for intravenous infusion which was completed in 1 h at the rate of 4 μg/min. […] The cardiac, hepatic, renal and pulmonary functions were all normal.

symptomatic HIV patients = assay: First clinical study of HIV+ patients: symptoms and side effects (incl. case studies); assay type: in vivo, human
Protocol: Twelve symptomatic patients (five males and seven females) between the ages of 35 to 52 all of whom were infected with HIV in 1995 through blood transfusion and were refractory to standard treatments for HIV were treated with TPA. Each patient was administered a weight adjusted dosage of TPA (75 μg/sq m) in 200 ml of sterile saline by i.v. over one hour. This dose was administered once daily for the first three days of treatment. Each patient was then given this dose every other day for days 4 to 18 followed by a six month rest period prior to a second course of treatment according to the same protocol.
Results of treatment of initially symptomatic AIDS patients treated with TPA according to the protocols of Example III, IV, and V. Patients who participated in multiple studies are in some cases identified by more than one patient number. All patient identification numbers correspond to the patient numbers in Tables 1-7.

HIV [2] = assay: Second clinical study of HIV+ patients: blood HIV count; assay type: in vivo; settings: for BLOOD HIV COUNT LOG VALUE / BLOOD HIV COUNT RESULTS: one value per patient
Protocol: Nine of the patients in Example III were given a second treatment of TPA. Of these nine, seven were asymptomatic at the beginning of the second trial. A tenth patient (patient #2a) who was symptomatic and had not previously been treated with TPA was added to the study. Each patient was administered a weight adjusted dosage of TPA (75 μg/sq m) in 200 ml of sterile saline intravenously over one hour. This dosage was given to each patient once a day for ten consecutive days followed by a rest period of ten days for three cycles and a total of 30 doses of TPA. Patients 5a, 6a, and 8a stopped taking anti-AIDS drugs one month prior to beginning the TPA treatment and beginning again one month after the third cycle. Patients 1-4-a, 7a, and 9a-10a continued taking anti-AIDS drugs throughout the treatment.
Blood samples were taken three days prior to starting treatment, after completing the first 10 day cycle of TPA infusion and again after the last TPA infusion and CD3, CD4, CD8, WBC, RBC, HGB and platelets were measured.

HIV [3] = assay type: in vivo; settings: for HIV: antiretroviral therapy stopped, one value per patient
Protocol: Six patients, two males and four females between the ages of 37 and 52 years of age (Patients #13-18), were treated with TPA. Four of these patients previously received TPA treatment in combination with anti-HIV drugs in the two previous clinical studies. […] All treatments were stopped three days prior to the initiation of the third clinical study and were not resumed until 60 days after completion of the TPA treatment. The resumption of the standard HIV treatments was required by local health authorities.
Each patient in the study received 150 μg of TPA in 200 ml of sterile saline by intravenous infusion over a 1.5 to 2 hour period daily for 60 days for a total administered dose of 9.0 mg. Following completion of the 60 days of TPA therapy, these patients remained under observation for an additional 60 days though the received no further treatment.
CD3, CD4 and CD8 levels in peripheral blood were quantitated prior to starting treatment, and again at 30 and 60 days using flow cytometry and the appropriate antibodies obtained from B.D. Bioscience, San Diego, Calif. Viral load was determined using conventional methods at Kuang Ann men Hospital, Beijing, China. Patients RBC, WBC, platelets and hemoglobin levels were also measured.

[4] = tested on: relapsed/refractory AML, other myeloid malignancies, Hodgkin's Disease, non-Hodgkin's lymphoma, solid tumors; assay: TPA Phase 1 study in relapsed/refractory malignancies; assay type: in vivo
Excerpt: An initial TPA Phase 1 study enrolled 35 patients [23 with relapsed/refractory AML, 2 with other myeloid malignancies (CML-blast crisis, myelodysplasia with excess blasts), 3 with Hodgkin's Disease, 3 with non-Hodgkin's lymphoma and 4 with solid tumors]. The majority of patients had relapsed/refractory AML. Our clinical results include one AML patient with stable disease for >5 months, who received 8 TPA infusions. In a second AML patient, a pronounced (5-fold) decline in the number of circulating blasts was seen following TPA administration. This decline in leukemic blasts persisted for 4 weeks, and the patient eventually died from a fungal infection.

[5] = TPA 50 μg/kg/day i.p. for 7 days
[6] = TPA 100 μg/kg/day i.p. for 7 days
[7] = TPA 200 μg/kg/day i.p. for 7 days
[8] = protocol of Example III (first or repeat course)
[9] = protocol of Example III (first or repeat course), individual patients
[10] = twelve symptomatic HIV patients

In the case of CCCCCCCCCCCCCC(=O)O[C@@H]1[C@@H](C)[C@@]2(O)[C@@H](C=C(CO)C[C@]3(O)C(=O)C(C)=C[C@@H]23)[C@@H]2C(C)(C)[C@]12OC(C)=O [TPA, 12-O-tetradecanoylphorbol-13-acetate], the Hb (S180 cell-injected mice; [5]) is reported as 136 ± 11 g/L, the WBC counts (S180 cell-injected mice; [5]) is reported as 16.1±7.4 ×10^9/L and the Hb (S180 cell-injected mice; [6]) is reported as 149 ± 12 g/L. For the same compound, the WBC counts (S180 cell-injected mice; [6]) was 18.7±3.0 ×10^9/L, the Hb (S180 cell-injected mice; [7]) was 149 ± 10 g/L and the WBC counts (S180 cell-injected mice; [7]) was 20.7±3.4 ×10^9/L. The “Hb in the urine” value ([1]; 0.25 mg/patient ×4/week) was “No Hb was detected in the urine”, the “cardiac, hepatic, renal and pulmonary functions” value (“cardiac, hepatic” for short) ([1]; 0.25 mg/patient ×4/week) was “normal” and the chills and fever ([1]; 0.25 mg/patient ×4/week) was “observed, but to a much lesser extent than with the higher dosages”. For the same compound, the difficulty in breathing ([1]; 0.25 mg/patient ×4/week) was “no patient suffered difficulty in breathing”, the “Hb in the urine” value ([1]; 0.5 mg/patient ×2/week) was “Occasionally, Hb was detected in patients' urine” and the “cardiac, hepatic” value ([1]; 0.5 mg/patient ×2/week) was “normal”. For the same compound, the difficulty in breathing ([1]; 0.5 mg/patient ×2/week) was “not observed”, the “Hb in the urine” value ([1]; 1 mg/patient/week) was “Hb was detected in the urine” and the bleeding ([1]; 1 mg/patient/week) was “caused a minority of patients to bleed”. The “cardiac, hepatic” value ([1]; 1 mg/patient/week) was “normal”, the difficulty in breathing ([1]; 1 mg/patient/week) was “several patients suffered for a short period of time difficulty in breathing” and the duration of fever ([1]; 1 mg/patient/week i.v. infusion) was 3 to 5 h. The “patients' temperature (fever)” value ([1]; 1 mg/patient/week i.v. infusion in 1 h) was 37.5-39.5 °C, the duration of chills ([1]; 1 mg/patient/week i.v. infusion, start one hour after administration) was “about 30 min” and the “duration of shortness of breath” value (symptomatic HIV patients; first treatment with TPA, individual patients) was 15 min. For the same compound, the “platelet count after TPA treatment” value (symptomatic HIV patients; patient #10, rose from 30,000) was 110,000 per microliter, the “other side effects during TPA treatment (individual patient)” value (symptomatic HIV patients; protocol of Example III) was “did not experience an increase in body temperature or any other side effect; also recorded: mild dizziness and headache; also recorded: serious skin irritation; also recorded: skin irritation due to a leaking needle” and the “symptom free period after TPA therapy (individual patient)” value (symptomatic HIV patients; [8]) was “five months; also recorded: one year”. The “symptoms after treatment with TPA (individual patient)” value (symptomatic HIV patients; [8]) was “gradual improvement in symptoms; also recorded: their oral lesions, skin thrush and fever disappeared; also recorded: marked improvement in their symptoms; also recorded: The lymph node returned to normal size; also recorded: no improvement in symptoms occurred; also recorded: their symptoms remained unchanged; also recorded: the frequency of their colds decreased; also recorded: their diarrhea was completely gone; also recorded: their dizziness, headache and diarrhea gradually lessened; also recorded: the dizziness, headache, fever and skin thrush were improving and gradually faded away; also recorded: their symptoms disappeared completely; also recorded: all their symptoms disappeared”, the “duration of the increase in body temperature” value (symptomatic HIV patients; [9]) was 1-2 hours and four and 4 hours and the “increase in body temperature during TPA treatment” value (symptomatic HIV patients; [9]) was 38-39 °C and 38 °C and 38.5 °C. For the same compound, the “additional patients with a decrease in symptoms” value (symptomatic HIV patients; [10]) was “Three additional patients had a decrease in symptoms”, the “patients who became symptom free” value (symptomatic HIV patients; [10]) was “Eight patients became symptom free” and the “patients with significant improvement following treatment” value (symptomatic HIV patients; twelve symptomatic HIV patients, 75 μg/sq m i.v.) was “eleven of the patients showed significant improvement”. The “BLOOD HIV COUNT LOG VALUE” (HIV [2]; after first cycle TPA infusion) was 5.490 and 2.371 and 4.825 and 5.217 and 5.450 and 5.475, the “BLOOD HIV COUNT RESULTS” value (HIV [2]; after first cycle TPA infusion) was 3.09 × 10^5 copies/ml and lower the 500 copies/ml and undetectable (4×) and 6.68 × 10^4 copies/ml and 1.65 × 10^5 copies/ml and 2.82 × 10^5 copies/ml and 2.99 × 10^5 copies/ml and the “BLOOD HIV COUNT LOG VALUE” (HIV [2]; after third cycle TPA infusion) was 5.966 and 3.980 and 3.376 and 4.792 and 5.371 and 5.270 and 5.973. The “BLOOD HIV COUNT RESULTS” value (HIV [2]; after third cycle TPA infusion) was 9.24 × 10^5 copies/ml and 9.55 × 10^3 copies/ml and 2.38 × 10^3 copies/ml and undetectable (3×) and 6.20 × 10^4 copies/ml and 2.35 × 10^5 copies/ml and 1.86 × 10^5 copies/ml and 9.41 × 10^5 copies/ml, the “viral load of HIV (summary)” value (HIV [2]; ten patients) was “undetectable in three patients (<200); it increased somewhat in six others and was reduced in one” and the HIV (HIV [3]; Sixty Days After TPA) was 0.038 copies/ml (All Figures in Mill and Undetectable (2×) and 0.012 copies/ml (All Figures in Mill and 0.056 copies/ml (All Figures in Mill and 0.133 copies/ml (All Figures in Mill. For the same compound, the HIV (HIV [3]; Thirty Days After TPA) was 0.353 copies/ml (All Figures in Mill and 1.99 copies/ml (All Figures in Mill and 1.28 copies/ml (All Figures in Mill and 0.152 copies/ml (All Figures in Mill and 0.174 copies/ml (All Figures in Mill and 0.533 copies/ml (All Figures in Mill, the “viral load rebound after discontinuation of antiretroviral therapy” value (HIV [3]; six patients, 150 μg TPA daily for 60 days) was “no rebound in viral levels; also recorded: no viral load rebound” and the “patients with grade III non-hematologic dose limiting toxicities (DLT)” value ([4]; 0.188 mg/m2 d1-5, 8-12) was 2 out of 3. For the same compound, the “maximum tolerated TPA dose as a single agent” value ([4]; d1-5 and 8-12) was 0.125 mg/m2/d, the “duration of stable disease” value ([4]; one AML patient, 8 TPA infusions) was over 5 months and the “response of relapsed and refractory Hodgkin's disease” value ([4]; one patient) was “partial remission of a chest wall mass”. The “persistence of the decline in leukemic blasts” value ([4]; second AML patient) was 4 weeks and the “decline in the number of circulating blasts” value ([4]; second AML patient, following TPA administration) was 5 fold.
